Experiments:
[1] = system: Echinochloa oryzicola Vasing; assay: Test Example 1: herbicidal effects in paddy field soil treatment; format: in vivo; set-up: scale not given here; conditions: 1000 g active ingredient per hectare, 21st day after treatment
In short: (§1)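 Seeds sown in puddled paddy soil flooded to 3 cm; next day, diluted wettable powder dripped onto the water surface at 1000 g active ingredient per hectare. Plants grown in a greenhouse and herbicidal effect scored on a rating scale 21 days after treatment.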

[2] = system: Monochoria vaginalis (Burm. f.) Presl var. plantaginea (Roxb.) Solms-Laub.; assay: as above; format: in vivo; set-up: scale not given here; conditions: 1000 g active ingredient per hectare, 21st day after treatment
In short: as §1

[3] = system: Scirpus juncoides Roxb. var. ohwianus. T. Koyama; assay: as above; format: in vivo; set-up: scale not given here; conditions: 1000 g active ingredient per hectare, 21st day after treatment
In short: as §1

[4] = system: Abutilon theophrasti medicus; assay: Test Example 2: herbicidal effects in farmland soil treatment; format: in vivo; set-up: scale not given here; conditions: 1000 g active ingredient per hectare, 21st day after treatment
In short: (§2)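 Pre-emergence soil treatment: wettable powder diluted in water sprayed on farmland soil over freshly sown seeds at 1000 g active ingredient per hectare in 1000 L/ha. Plants grown in greenhouse, herbicidal effect scored visually on a rating scale 21 days after treatment.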

Amaranthus retroflexus [5] = assay: as above; format: in vivo; set-up: scale not given here; conditions: 1000 g active ingredient per hectare, 21st day after treatment
In short: as §2

[6] = system: Abutilon theophrasti medicus; assay: Test Example 3: herbicidal effects in farmland foliar treatment; format: in vivo; set-up: scale not given here; conditions: 1000 g active ingredient per hectare, 14th day after treatment
In short: (§3)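 Weeds grown two weeks in farmland soil in a greenhouse, then sprayed over the foliage with diluted wettable powder at 1000 L/ha, delivering 1000 g active ingredient per hectare. Herbicidal effect scored 14 days after treatment against set rating criteria.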

Amaranthus retroflexus [7] = assay: as above; format: in vivo; set-up: scale not given here; conditions: 1000 g active ingredient per hectare, 14th day after treatment
In short: as §3

[8] = system: Echinochloa crus-galli (L.) P. Beauv. var. crus-galli; assay: as above; format: in vivo; set-up: scale not given here; conditions: 1000 g active ingredient per hectare, 14th day after treatment
In short: as §3

Echinochloa crus-galli = assay: Test Example 2: herbicidal effects in farmland soil treatment; format: in vivo; set-up: scale not given here; conditions: 1000 g active ingredient per hectare, 21st day after treatment
Setaria viridis [9] = assay: as above; format: in vivo; set-up: scale not given here; conditions: 1000 g active ingredient per hectare, 21st day after treatment
Setaria viridis [10] = assay: Test Example 3: herbicidal effects in farmland foliar treatment; format: in vivo; set-up: scale not given here; conditions: 1000 g active ingredient per hectare, 14th day after treatment

| SMILES | Herbicidal effect index, Echinochloa oryzicola [1] | Herbicidal effect index, Monochoria vaginalis [2] | Herbicidal effect index, Scirpus juncoides [3] | Herbicidal effect index, Abutilon thophrasti [4] | Herbicidal effect index, Amaranthus retroflexus (Amaranthus retroflexus [5]) | Herbicidal effect index, Abutilon theoprasti [6] | Herbicidal effect index, Amaranthus retroflexus (Amaranthus retroflexus [7]) | Herbicidal effect index, Echinochloa crus-galli [8] | melting point [°C] | Herbicidal effect index, Echinochloa crus-galli (Echinochloa crus-galli) | Herbicidal effect index, Setaria viridis (Setaria viridis [9]) | Herbicidal effect index, Setaria viridis (Setaria viridis [10]) |
| --- | --- | --- | --- | --- | --- | --- | --- | --- | --- | --- | --- | --- |
| COc1ccc(-n2c(=O)c(C(=O)C3=C(O)CCCC3=O)cc3cccnc32)cn1 [II-92, 3-(2-hydroxy-6-oxo-1-cyclohexenecarbonyl)-1-(6-methoxy-3-pyridinyl)-1,8-naphthyridin-2(1H)-one] | 5 | 5 | 5 | 5 | 5 | 5 | 5 | 5 | 220 to 222 | 5 | 4 | 5 |
| O=C1CCCC(O)=C1C(=O)c1cc2cccnc2n(-c2ccc3c(c2)OCCO3)c1=O [II-118, 1-(2,3-dihydrobenzo[b][1,4]dioxin-6-yl)-3-(2-hydroxy-6-oxo-1-cyclohexenecarbonyl)-1,8-naphthyridin-2(1H)-one] | 5 | 5 | 5 | 5 | 5 | 5 | 5 | 5 | 226 to 228 | 5 | 5 | 5 |
| Cn1c(=O)c(C(=O)C2=C(O)CCCC2=O)cc2ccc(C(F)(F)F)nc21 [II-136, 3-(2-hydroxy-6-oxo-1-cyclohexenecarbonyl)-1-methyl-7-(trifluoromethyl)-1,8-naphthyridin-2(1H)-one] | 5 | 5 | 5 | 4 | 5 | 5 | 5 | 5 | 194 to 196 | 5 | 4 | 4 |
